≈ marks a conversion by molar mass, not a printed value.
How the values were obtained:
[1] = system: M. catarrhalis ATCC 25238; experiment: MIC determination, M. catarrhalis ATCC 25238; format: cell-based; conditions: for MIC: Moraxella catarrhalis, ATCC25238, Table 1, read-out: MIC M. catarrhalis ATCC 25238; for MIC M. catarrhalis ATCC 25238: Table 1
[2] = system: S. epidermidis ATCC 12228; experiment: MIC determination, S. epidermidis ATCC 12228; format: cell-based, Staphylococcus epidermidis; conditions: for MIC: Staphylococcus epidermidis, ATCC12228, Table 1, read-out: MIC S. epidermidis ATCC 12228
E. faecalis ATCC 29212 = experiment: MIC determination, E. faecalis ATCC 29212; format: cell-based, Enterococcus faecalis; conditions: for MIC: Enterococcus faecalis, ATCC29212, Table 1, read-out: MIC E. faecalis ATCC 29212
S. aureus ATCC 29213 = experiment: MIC determination, S. aureus ATCC 29213; format: cell-based, Staphylococcus aureus; conditions: for MIC: Staphylococcus aureus, ATCC29213, Table 1, read-out: MIC S. aureus ATCC 29213
S. pneumoniae ATCC 6301 = experiment: MIC determination, S. pneumoniae ATCC 6301; format: cell-based, Streptococcus pneumoniae; conditions: for MIC: Streptococcus pneumoniae, ATCC6301, Table 1, read-out: MIC S. pneumoniae ATCC 6301; for MIC S. pneumoniae ATCC 6301: Table 1
E. faecium CT-26 = experiment: MIC determination, E. faecium CT-26; format: cell-based, Enterococcus faecium; conditions: for MIC: Enterococcus faecium, CT26, Table 1, read-out: MIC E. faecium CT-26

Row | Compound | MIC M. catarrhalis ATCC 25238 [1] [micrograms per ml] | MIC S. epidermidis ATCC 12228 ([2]; Table 1) [micrograms per ml] | MIC E. faecalis ATCC 29212 (E. faecalis ATCC 29212; Table 1) [micrograms per ml] | MIC S. aureus ATCC 29213 (S. aureus ATCC 29213; Table 1) [micrograms per ml] | MIC S. pneumoniae ATCC 6301 (S. pneumoniae ATCC 6301) [micrograms per ml] | MIC E. faecium CT-26 (E. faecium CT-26; Table 1) [micrograms per ml] | further results
1 | COc1cccc2c(O)cc(C(=O)O)nc12 [Compound 25] | – | – | – | – | – | – | MIC [1]: 2 µg/mL (≈ 9.12 µM); MIC [2]: 8 µg/mL (≈ 36.5 µM); MIC (E. faecalis ATCC 29212): 16 µg/mL (≈ 73 µM); MIC (S. aureus ATCC 29213): 0.5 µg/mL (≈ 2.28 µM); MIC (S. pneumoniae ATCC 6301): 2 µg/mL (≈ 9.12 µM); MIC (E. faecium CT-26): 16 µg/mL (≈ 73 µM)
2 | N#Cc1ccc(O)c2ncccc12 [Compound 21, 5-cyano-8-hydroxyquinoline] | – | – | – | – | – | – | MIC [1]: 0.25 µg/mL (≈ 1.47 µM); MIC [2]: 4 µg/mL (≈ 23.5 µM); MIC (E. faecalis ATCC 29212): 16 µg/mL (≈ 94 µM); MIC (S. aureus ATCC 29213): 0.5 µg/mL (≈ 2.94 µM); MIC (S. pneumoniae ATCC 6301): 2 µg/mL (≈ 11.8 µM); MIC (E. faecium CT-26): 8 µg/mL (≈ 47 µM)
3 | Oc1cccc2cccnc12 [Compound 15, 8-hydroxyquinoline] | 0.5 | 1 | 16 | 0.125 | 2 | 4 | –
4 | Oc1cccc2cccnc12 [Compound 85, 8-hydroxyquinoline] | 2 | 1 | 4 | 2 | 2 | 4 | –
5 | Oc1cccc2cccnc12 [Compound 30, 8-hydroxyquinoline] | – | 0.5 | 2 | 1 | – | 2 | –
6 | Oc1ccc(F)c2cccnc12 [Compound 62] | 2 | 2 | 8 | 2 | 2 | 4 | –
7 | Oc1ccc(F)c2cccnc12 [Compound 12] | 2 | – | – | 0.125 | – | – | MIC [2]: 2 µg/mL (≈ 12.3 µM); MIC (E. faecalis ATCC 29212): 8 µg/mL (≈ 49 µM); MIC (S. pneumoniae ATCC 6301): 2 µg/mL (≈ 12.3 µM); MIC (E. faecium CT-26): 4 µg/mL (≈ 24.5 µM)
8 | Oc1cccc2cccnc12 [Compound 93, 8-hydroxyquinoline] | 1 | 1 | 8 | 2 | 1 | 4 | –
9 | Oc1cccc2cccnc12 [Compound 32, 8-hydroxyquinoline] | 2 | 1 | 16 | 1 | 1 | 2 | –
10 | Fc1cccc(B(Oc2cccc3cccnc23)C2CC2)c1 [Compound 70, (3-Fluorophenyl)cyclopropylborinic acid 8-hydroxyquinoline ester] | 0.5 | 1 | 64 | 2 | 1 | 2 | –
11 | Oc1cccc2cccnc12 [Compound 78, 8-hydroxyquinoline] | 2 | 1 | 8 | 2 | 1 | 2 | –
12 | Oc1cccc2cccnc12 [Compound 41, 8-hydroxyquinoline] | 1 | 1 | 4 | 1 | 1 | 2 | –
13 | Oc1cccc2cccnc12 [Compound 27, 8-hydroxyquinoline] | 1 | 1 | 8 | 0.5 | 1 | 2 | –
14 | Oc1cccc2cccnc12 [Compound 82, 8-hydroxyquinoline] | 4 | 2 | 8 | 2 | 2 | 2 | –
15 | Oc1c(Br)cc(Br)c2cccnc12 [Compound 24] | – | – | – | – | – | – | MIC [1]: 0.12 µg/mL (≈ 0.396 µM); MIC [2]: 8 µg/mL (≈ 26.4 µM); MIC (E. faecalis ATCC 29212): 64 µg/mL (≈ 211 µM); MIC (S. aureus ATCC 29213): 0.5 µg/mL (≈ 1.65 µM); MIC (S. pneumoniae ATCC 6301): 8 µg/mL (≈ 26.4 µM); MIC (E. faecium CT-26): 32 µg/mL (≈ 106 µM)
16 | 4-hydroxybenzimidazole [Compound 120] | – | – | – | – | – | – | MIC S. epidermidis ATCC 12228 ([2]; Table 2): 4 micrograms per ml; MIC E. faecalis ATCC 29212 (E. faecalis ATCC 29212; Table 2): 8 micrograms per ml; MIC S. aureus ATCC 29213 (S. aureus ATCC 29213; Table 2): 0.125 micrograms per ml; MIC E. faecium CT-26 (E. faecium CT-26; Table 2): 8 micrograms per ml
17 | Oc1cccc2cccnc12 [Compound 60, 8-hydroxyquinoline] | 2 | 1 | 8 | 2 | 2 | 4 | –
18 | Oc1cccc2cccnc12 [Compound 28, 8-hydroxyquinoline] | 1 | 1 | 4 | 0.5 | 2 | 2 | –
19 | Oc1cccc2nc[nH]c12 [Compound 11, 4-hydroxybenzimidazole] | – | – | – | – | – | – | MIC [2]: 4 µg/mL (≈ 29.8 µM); MIC (E. faecalis ATCC 29212): 8 µg/mL (≈ 59.6 µM); MIC (S. aureus ATCC 29213): 0.125 µg/mL (≈ 0.932 µM); MIC (E. faecium CT-26): 8 µg/mL (≈ 59.6 µM)
20 | Oc1cccc2cccnc12 [Compound 96, 8-hydroxyquinoline] | 1 | 1 | 8 | 2 | 2 | 2 | –
21 | C=CB(Oc1cccc2cccnc12)c1cccc(C#N)c1 [Compound 40, (3-Cyanophenyl)vinylborinic acid 8-hydroxyquinoline ester] | 2 | 1 | 8 | 1 | 1 | 2 | –
22 | Oc1cccc2cccnc12 [Compound 86, 8-hydroxyquinoline] | 2 | 1 | 8 | 2 | 2 | 4 | –
23 | Oc1ccc(F)c2cccnc12 [Compound 35] | 2 | 2 | 8 | 1 | 2 | 4 | –
24 | Oc1cccc2cccnc12 [Compound 91, 8-hydroxyquinoline] | 1 | 1 | 8 | 2 | 2 | 2 | –
25 | Oc1cccc2cccnc12 [Compound 69, 8-hydroxyquinoline] | 1 | 1 | 64 | 2 | 2 | 4 | –
26 | O=C(O)c1cc(O)c2ccccc2n1 [Compound 31] | – | – | – | – | – | – | MIC [2]: 1 µg/mL (≈ 5.29 µM); MIC (E. faecalis ATCC 29212): 2 µg/mL (≈ 10.6 µM); MIC (S. aureus ATCC 29213): 1 µg/mL (≈ 5.29 µM); MIC (E. faecium CT-26): 1 µg/mL (≈ 5.29 µM)
27 | Oc1cccc2cccnc12 [Compound 52, 8-hydroxyquinoline] | – | 4 | 8 | 2 | – | 16 | –
28 | CB(Oc1cccc2cccnc12)c1cccs1 [Compound 26, (2-Thienyl)methylborinic acid 8-hydroxyquinoline ester] | – | 1 | 4 | 0.5 | – | 4 | –
29 | Oc1cccc2cccnc12 [Compound 76, 8-hydroxyquinoline] | – | 1 | 8 | 2 | – | 4 | –

Source: patent US7390806B2, “Antibiotics containing borinic acid complexes and methods of use” (Anacor Pharmaceuticals, Inc., priority 2002, dated 2008)
